# In ChEMBL document CHEMBL5518180, “Design, synthesis, and biological evaluation of harmine derivatives as topoisomerase I inhibitors for cancer treatment” (Eur J Med Chem, 2024):
# pIC50: −log10 of the molar value.
# Key:
# [1] = Toxicity in BALB/c mouse transplanted with […] cells assessed as liver damage at 5 to 20 mg/kg, ip administered for 14 days by hematoxylin and eosin staining based analysis; type: organism-based; settings: in vivo, 336 h, dose 5-20 mg/kg, time 14 day
# [2] = tested on: HT-29; assay: Antiproliferative activity against human HT-29 cells assessed as inhibition of cell growth incubated for 48 hrs by MTT assay; type: functional, cell-based; settings: HT-29, 48 h
# [3] = Toxicity in BALB/c mouse transplanted with […] cells assessed as spleen damage at 5 to 20 mg/kg, ip administered for 14 days by hematoxylin and eosin staining based analysis; type: organism-based; settings: in vivo, 336 h, dose 5-20 mg/kg, time 14 day
# [4] = tested on: 4T1; assay: Antitumor activity against mouse 4T1 cells transplanted in BALB/c mouse assessed as tumor growth inhibition rate at 5 mg/kg, ip administered for 14 days relative to control; type: functional; settings: 4T1, 336 h, time 14 day, read-out: TGI
# [5] = tested on: MCF7; assay: Antimigratory activity against human MCF7 cells assessed as inhibition of recovery of cells from scratch wounds incubated for 24 hrs by inverted fluorescence microscopic analysis; type: functional, cell-based; settings: dose 0.125-0.5 µM
# [6] = tested on: MCF7; assay: Induction of apoptosis in human MCF7 cells assessed as viable cells at 0.1 uM incubated for 24 hrs by Annexin V-FITC/Propidium Iodide staining based flow cytometry analysis (reference value: 91.8 %); type: functional; settings: read-out: Activity
# [7] = Cytotoxicity against human L02 cells assessed as inhibition of cell growth incubated for 48 hrs by MTT assay; type: toxicity, cell-based
# [8] = tested on: MCF7; assay: Induction of apoptosis in human MCF7 cells assessed as viable cells at 0.5 uM incubated for 24 hrs by Annexin V-FITC/Propidium Iodide staining based flow cytometry analysis (reference value: 91.8 %); type: functional; settings: read-out: Activity
# [9] = tested on: MCF7; assay: Induction of apoptosis in human MCF7 cells assessed as necrotic cells at 2 uM incubated for 24 hrs by Annexin V-FITC/Propidium Iodide staining based flow cytometry analysis (reference value: 0.082 %); type: functional
# [10] = tested on: MCF7; assay: Induction of apoptosis in human MCF7 cells assessed as increase in cleaved-PARP protein expression incubated for 24 hrs by Western blotting analysis; type: functional, cell-based; settings: dose 0.1-2 µM
# [11] = tested on: MCF7; assay: Induction of apoptosis in human MCF7 cells assessed as early apoptotic cells at 0.5 uM incubated for 24 hrs by Annexin V-FITC/Propidium Iodide staining based flow cytometry analysis (reference value: 2.54 %); type: functional
# [12] = Toxicity in BALB/c mouse transplanted with […] cells assessed as change in serum alanine aminotransferase level at 5 to 20 mg/kg, ip administered for 14 days by biochemical analysis; type: organism-based; settings: in vivo, 336 h, dose 5-20 mg/kg, time 14 day
# [13] = Toxicity in BALB/c mouse transplanted with […] cells assessed as change in blood urea nitrogen level at 5 to 20 mg/kg, ip administered for 14 days by biochemical analysis; type: organism-based; settings: in vivo, 336 h, dose 5-20 mg/kg, time 14 day
# [14] = tested on: PC-3; assay: Antiproliferative activity against human PC-3 cells assessed as inhibition of cell growth incubated for 48 hrs by MTT assay; type: functional, cell-based; settings: PC-3, 48 h
# [15] = target: T1, DNA topoisomerase 1 (Homo sapiens) (UniProt P11387); assay: Inhibition of Topoisomerase I (unknown origin) assessed as inhibition of relaxation of supercoiled DNA incubated for 90 mins in presence of pBR322 by electrophoretic analysis; settings: dose 25-100 µM
# T1 sequence (whole entry): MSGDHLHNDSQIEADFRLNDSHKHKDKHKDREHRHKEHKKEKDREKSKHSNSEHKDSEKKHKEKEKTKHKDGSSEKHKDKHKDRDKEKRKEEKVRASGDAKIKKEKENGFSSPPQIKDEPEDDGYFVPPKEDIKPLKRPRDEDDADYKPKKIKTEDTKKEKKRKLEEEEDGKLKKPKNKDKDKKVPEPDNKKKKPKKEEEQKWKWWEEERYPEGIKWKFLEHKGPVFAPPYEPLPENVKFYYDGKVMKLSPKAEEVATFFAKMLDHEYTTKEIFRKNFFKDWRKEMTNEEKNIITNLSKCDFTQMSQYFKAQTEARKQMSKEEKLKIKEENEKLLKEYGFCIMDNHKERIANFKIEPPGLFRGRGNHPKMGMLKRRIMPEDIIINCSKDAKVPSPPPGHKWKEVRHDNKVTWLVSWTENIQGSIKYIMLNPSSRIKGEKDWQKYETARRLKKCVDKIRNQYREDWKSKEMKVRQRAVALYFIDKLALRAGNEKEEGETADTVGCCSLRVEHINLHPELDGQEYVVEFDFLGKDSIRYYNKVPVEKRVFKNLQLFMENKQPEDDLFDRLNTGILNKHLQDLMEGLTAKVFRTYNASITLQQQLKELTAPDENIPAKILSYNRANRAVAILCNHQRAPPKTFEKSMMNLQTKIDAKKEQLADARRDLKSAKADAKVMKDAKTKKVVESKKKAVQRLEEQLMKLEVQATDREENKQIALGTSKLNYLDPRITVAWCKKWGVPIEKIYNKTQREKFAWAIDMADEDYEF
# [16] = tested on: MCF7; assay: Induction of DNA double-strand breaks in human MCF7 cells assessed as increase in gamma-H2AX protein expression incubated for 48 hrs by Western blotting analysis; type: functional, cell-based; settings: dose 0.25-1 µM
# [17] = tested on: MCF7; assay: Antimigratory activity against human MCF7 cells assessed as wound healing rate at 0.125 uM incubated for 24 hrs by inverted fluorescence microscopic analysis (reference value: 42.5 %); type: functional
# [18] = tested on: MCF7; assay: Induction of apoptosis in human MCF7 cells assessed as decrease in Bcl-2 protein level incubated for 24 hrs by Western blotting analysis; type: functional, cell-based; settings: dose 0.1-2 µM
# [19] = Toxicity in BALB/c mouse transplanted with […] cells assessed as lung damage at 5 to 20 mg/kg, ip administered for 14 days by hematoxylin and eosin staining based analysis; type: organism-based; settings: in vivo, 336 h, dose 5-20 mg/kg, time 14 day
# [20] = Toxicity in BALB/c mouse transplanted with […] cells assessed as change in body weight at 5 to 20 mg/kg, ip administered for 14 days; type: organism-based; settings: in vivo, 336 h, dose 5-20 mg/kg, time 14 day
smiles,measurement,setting,value
O=C(/C=C/c1ccc(Cl)c([N+](=O)[O-])c1)c1nccc2c1[nH]c1ccccc12,Activity,[1],Non-Toxic
same,pIC50,[2],6.24
same,Activity,[3],Non-Toxic
same,inhibition in vivo at 5 mg/kg,[4],21.7%
same,Activity,[5],Dose-Dependent Effect
same,viability at 0.1 µM,[6],85.3%
same,IC50 at 48 h,[7],9610 nM
same,viability at 0.5 µM,[8],71%
same,Activity,[9],0.93%
same,Activity,[10],Dose-Dependent Effect
same,Activity,[11],20.1%
same,Activity,[12],Non-Toxic
same,Activity,[13],Non-Toxic
same,pIC50,[14],5.93
same,inhibition,[15],Dose-Dependent Effect
same,Activity,[16],Dose-Dependent Effect
same,Activity,[17],15.3%
same,Activity,[18],Dose-Dependent Effect
same,Activity,[19],Non-Toxic
same,Activity,[20],Non-Toxic
